Source: patent publication US11098040B2, “Compounds and methods of use” (Ferro Therapeutics, Inc., priority 2018, dated 2021)

Experiments:
[1] = Pharmacokinetic (PK) studies in Balb/C nude mice via intraperitoneal injection; details: male, Balb/c nude, mouse, plasma, ip, 15 mg/kg, Calculated Concentration, IP 15 mg/kg, Balb/C nude mice
Description: Test compounds were dissolved either in 20% (w/w) sulfobutylether-β-cyclodextrin (SBECD) pH 3-7 aqueous solution, or 5% DMSO/(30-50%) PEG400/(65-45%) water. Test compound dosing solutions were administered intraperitoneally to Balb/c nude male mice. Blood samples were collected at various time points with EDTA-K2 as anti-coagulant on ice, and centrifuged to obtain plasma samples. The plasma samples were stored at −20° C. until analysis.
Into 10 μL of test compound plasma samples were added 2 μL DMSO then 200 μL of 5 ng/mL internal standard (VTSD) (Terfenadine) in MeOH/acetonitrile. The mixture was vortexed for 1 minute and centrifuged at 4000 rpm for 15 minutes. Calibration standards were prepared by spiking known amount of test compounds into blank plasma samples. The supernatant solution was diluted 5 times with Acetonitrile/H2O (with 0.1% formic acid, 1:1, v/v), and this is the solution for LC-MS/MS analysis. The limit of quantification (LOQ) was 1 ng/mL.
Typical HPLC mobile phases were mobile phase of 5 mM NH4OAc (with 0.05% formic acid); and mobile phase B of acetonitrile (with 0.1% formic acid). The HPLC column was Kinetex C18 (30 mm×3.00 mm). Mass spectrometer was tuned for each compound in the Multiple Reaction Monitoring (MRM) scanning mode and in the electrospray ionization mode. The lower limit of quantification was 1-10 ng.
In this study, K601 (RSL3) was formulated in 5% DMSO/30% PEG 400/65% water at 1.5 mg/mL. The volume of injection via intraperitoneal route was 10 mL/kg for a dose of 15 mg/kg. […] The limit of quantification (LOQ) was 1 ng/mL.
In this study, the compound was formulated in 20% (w/w) sulfobutylether-β-cyclodextrin (SBECD), pH 5 aqueous solution at 1.5 mg/mL. The volume of injection via intraperitoneal route was 10 mL/kg for a dose of 15 mg/kg. The concentration of test compounds in plasma were analyzed by LC-MS with the method described above. The limit of quantification was 1 ng/mL.
It was formulated in 5% DMSO/50% PEG400/45% Water pH adjusted to 4 with HCl as an aqueous solution at 1.0 mg/mL. The volume of injection via intraperitoneal route was 15 mL/kg for a dose of 15 mg/kg. The concentration of test compounds in plasma were analyzed by LC-MS with the method described above. The limit of quantification was 1 ng/mL. […] The limit of quantification was 1 ng/mL.
Compounds 24 and 28 were formulated in 20% (w/w) sulfobutylether-β-cyclodextrin (SBECD) with pH 3 and pH 4, respectively, as an aqueous solution at 1.0 mg/mL. Compound 67 was in 5% DMSO/50% PEG 400/45% water pH 4 (adjusted with 12 N HCl) aqueous solution at 1.0 mg/mL. The injection volume via intraperitoneal route was 10 mL/kg for a dose of 15 mg/kg. The concentration of test compounds in plasma were analyzed by LC-MS with the method described above. The limit of quantification was 1 ng/mL.

[2] = tested on: MiaPaCa-2; experiment: Cell viability assay (CellTiter Glo), pancreatic carcinoma MiaPaCa-2; format: cell-based; details: Homo sapiens, MIA PaCa-2; pancreatic carcinoma, 96 hours, CellTiter Glo; read-out: IC50 MiaPaCa-2
Outline: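 MiaPaCa-2 and AsPC-1 cells were seeded overnight at 37 °C and exposed for 96 h to 9-point, 3-fold dilutions from up to 30 μM (final DMSO ≤0.25%). CellTiter Glo luminescence was read, and inhibition was calculated relative to DMSO-only cells. IC50, relative IC50 or % top inhibition was derived.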

[3] = tested on: Huh7; experiment: Cell viability assay (CellTiter Glo), hepatocellular carcinoma Huh7; format: cell-based; details: Homo sapiens, Huh-7, 96 hours
Description: (§1) Cell viability assay was performed to assess the potency of the compounds in human cancer cell lines KP4 (pancreatic ductal adenocarcinoma), MiaPaCa-2 (pancreatic carcinoma), AsPC-1 (pancreatic adenocarcinoma, ascites), 143B (osteosarcoma), and SJSA-1 (osteosarcoma). Selected compounds were also assayed in a human breast epithelial cell line MCF-10A, a nontumorigenic cell line as a control to assess differential activity. Cells at a density of 500-5,000 cells/well were seeded in 96-well plates and incubated at 37° C. overnight. A series of 9 different concentrations of compound stocks (500×) were created by 3-fold serial dilution in DMSO. These compounds were further diluted in culture media and then added to cells so that the final DMSO concentration was equal to 0.25% or less. After 96 hours of incubation, 50 μL of CellTiter Glo reagent (Promega) was added to each well and luminescence was measured after 10 minutes using EnVision (PerkinElmer). Compounds titrated from top concentration of up to 30 μM. The select compounds were tested initially from 30 μM as the top concentration in duplicates (range of 4.6 nM-30 μM). […] Luminescence from cells treated with DMSO alone was set as Max and % of inhibition was calculated as follows: Inhibition %=(Max-Sample value)/Max*100. Data was analyzed using XL-fit software (ID Business Solutions Ltd.). IC50, relative IC50, or % of top inhibition was calculated.
(§2) A group of selected analogs were further profiled in cell viability assays described above in multiple additional cancer cell lines, including lung cancer, melanoma, hepatocarcinoma, pancreatic cancer, leukemia, lymphoma, ovarian cancer, breast cancer, colon cancer, and sarcoma cell lines. Initial cell seeding numbers were adjusted for each cell line. Typically, 500-5000 cells/well for adherent cells and 5000-10000/well for suspension cells were seeded in 96-well plates.

[4] = tested on: Raji; experiment: Cell viability assay (CellTiter Glo), lymphoma cell line Raji; format: cell-based; details: Homo sapiens, 96 hours
Description: as §1, §2

[5] = tested on: MCF-10A; experiment: Cell viability assay (CellTiter Glo), non-tumorigenic breast epithelial cell line MCF-10A; format: cell-based; details: Homo sapiens, 96 hours
Outline: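 MCF-10A cells (500-5,000/well) treated 96 h at 37° C with 9-point 3-fold dilutions from up to 30 μM, ≤0.25% DMSO, in duplicate. Viability by CellTiter Glo luminescence; % inhibition versus DMSO-only wells gave IC50, relative IC50 or % top inhibition. Paclitaxel positive control.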

[6] = tested on: REC-1; experiment: Cell viability assay (CellTiter Glo), lymphoma cell line REC-1; format: cell-based; details: Homo sapiens, Rec1, 96 hours
Description: as §1, §2

[7] = tested on: SK-OV-3; experiment: Cell viability assay (CellTiter Glo), ovarian cancer cell line SK-OV-3; format: cell-based; details: Homo sapiens, 96 hours
Description: as §1, §2

[8] = tested on: MDA-MB-435S; experiment: Cell viability assay (CellTiter Glo), melanoma cell line MDA-MB-435S; format: cell-based; details: Homo sapiens, 96 hours
Description: as §1, §2

[9] = tested on: H2228; experiment: Cell viability assay (CellTiter Glo), lung cancer cell line H2228; format: cell-based; details: Homo sapiens, NCI-H2228; lung cancer cell line, 96 hours, CellTiter Glo; read-out: IC50 H2228
Description: as §1, §2

[10] = tested on: PANC1; experiment: Cell viability assay (CellTiter Glo), pancreatic cell line PANC1; format: cell-based; details: Homo sapiens, PANC-1, 96 hours
Description: as §1, §2
The results of the assay in the pancreatic cell lines are given in Table 15a for PANC1, Table 15b for MiaPaCa-2, and Table 15c for AsPC-1.

[11] = tested on: HT29; experiment: Cell viability assay (CellTiter Glo), colon cancer cell line HT29; format: cell-based; details: Homo sapiens, HT-29, 96 hours
Description: as §1, §2

[12] = tested on: MV-4-1; experiment: Cell viability assay (CellTiter Glo), leukemia cell line MV-4-1; format: cell-based; details: 96 hours
Description: as §1, §2
The results of the assay in the leukemia cell lines are given in Table 16a for MV-4-1 and Table 16b for HL-60 and Kasumi-1.

[13] = tested on: HCC1954; experiment: Cell viability assay (CellTiter Glo), breast cancer cell line HCC1954; format: cell-based; details: Homo sapiens, 96 hours
Description: as §1, §2

[14] = tested on: H1299; experiment: Cell viability assay (CellTiter Glo), lung cancer cell line H1299; format: cell-based; details: Homo sapiens, NCI-H1299, 96 hours
Description: as §1, §2

[15] = tested on: HT-1080 luc2; experiment: Cell viability assay (CellTiter Glo), fibrosarcoma HT-1080 luc2; format: cell-based; details: Homo sapiens, fibrosarcoma expressing a luciferase gene, 96 hours, CellTiter Glo, read-out: IC50 HT-1080 luc2
Description: as §1, §2
The results of the assay in sarcoma cell lines are given in Table 21a for HT-1080 luc2 (fibrosarcoma expressing a luciferase gene), Table 21b for 143B (osteosarcoma), and Table 21c for SJSA-1 (osteosarcoma).

SMILES	IC50 [3]	IC50 [4]	IC50 [6]	IC50 [7]	IC50 [8]	IC50 [9]	IC50 [10]	IC50 [11]	IC50 [12]	IC50 [13]	IC50 [14]	IC50 [15]	IC50 [5]	also measured
CN(C)C(=O)[C@H]1Cc2c([nH]c3ccccc23)[C@H](c2ccc([Si](C)(C)C)cc2)N1C(=O)CCl [Example 67]	–	–	–	–	–	–	–	–	–	–	–	–	–	concentration at 0.5 h ([1]; individual mice): 0.0906 µg/mL; concentration at 1 h ([1]; individual mice): 0.0387 µg/mL; concentration at 4 h ([1]; individual mice): 0.0166 µg/mL; concentration at 0.5 h ([1]; Mean, mean of 3 mice): 0.112 µg/mL; concentration at 1 h ([1]; Mean, mean of 3 mice): 0.0517 µg/mL; concentration at 2 h ([1]; Mean, 2 h, mean of 3 mice): 0.0202 µg/mL; concentration at 4 h ([1]; Mean, mean of 3 mice): 0.0144 µg/mL; IC50 [2]: 0.805 µM
COC(=O)c1ccc([C@@H]2c3[nH]c4ccc(Cl)cc4c3C[C@H](C(=O)OC)N2C(=O)CCl)cc1 [Example 94]	0.026 µM	0.009 µM	0.029 µM	0.018 µM	0.009 µM	0.019 µM	0.047 µM	0.11 µM	0.083 µM	0.068 µM	0.005 µM	0.008 µM	0.46 µM	–
CC[C@H]1Cc2c([nH]c3ccccc23)[C@H](c2ccc(C(=O)OC)cc2)N1C(=O)CCl [Example 98]	0.027 µM	0.02 µM	0.061 µM	0.03 µM	0.007 µM	0.017 µM	0.043 µM	0.094 µM	0.065 µM	0.063 µM	0.006 µM	0.009 µM	0.92 µM	–
C[C@H]1Cc2c([nH]c3ccccc23)[C@H](c2ccc([Si](C)(C)C)cc2)N1C(=O)CCl [Example 106]	0.028 µM	0.031 µM	0.156 µM	0.087 µM	0.017 µM	0.055 µM	0.055 µM	0.189 µM	0.17 µM	0.12 µM	0.007 µM	0.011 µM	–	–
C[C@H]1Cc2c([nH]c3ccccc23)[C@H](c2ccc(C3CCOCC3)cc2)N1C(=O)CCl [Example 112]	0.081 µM	0.046 µM	0.14 µM	0.102 µM	0.03 µM	0.066 µM	0.081 µM	0.198 µM	0.27 µM	0.101 µM	0.038 µM	0.024 µM	–	–
COC(=O)c1ccc([C@H]2c3[nH]c4ccc(OC)cc4c3C[C@H](C)N2C(=O)CCl)cc1 [Example 113]	0.157 µM	0.081 µM	0.222 µM	0.146 µM	0.048 µM	0.145 µM	0.214 µM	0.494 µM	0.532 µM	0.2 µM	0.079 µM	0.069 µM	–	–

More lines, main results first:

IC50 [3]	IC50 [4]	IC50 [6]	IC50 [7]	IC50 [8]	IC50 [9]	IC50 [10]	IC50 [11]	IC50 [12]	IC50 [13]	IC50 [14]	IC50 [15]	SMILES	IC50 [5]	also measured
0.072 µM	0.075 µM	0.191 µM	0.114 µM	0.036 µM	0.163 µM	0.169 µM	0.403 µM	0.174 µM	0.613 µM	0.038 µM	0.039 µM	C[C@H]1Cc2c([nH]c3ccccc23)[C@H](c2ccc(S(=O)(=O)N[C@]34CC5C[C@H](C[C@H](C5)C3)C4)cc2)N1C(=O)CCl [Example 101]	1.07 µM	–
0.011 µM	0.01 µM	0.031 µM	0.013 µM	0.004 µM	0.009 µM	0.03 µM	0.048 µM	0.023 µM	0.038 µM	0.003 µM	0.004 µM	C[C@H]1Cc2c([nH]c3ccccc23)[C@H](c2ccc(C(=O)N[C@]34CC5C[C@H](C[C@H](C5)C3)C4)cc2)N1C(=O)CCl [Example 102]	0.22 µM	–
0.035 µM	0.033 µM	0.096 µM	0.053 µM	0.014 µM	0.051 µM	0.072 µM	0.112 µM	0.164 µM	0.101 µM	0.03 µM	0.017 µM	C[C@H]1Cc2c([nH]c3ccccc23)[C@H](c2ccc(C3CCCCC3)cc2)N1C(=O)CCl [Example 110]	–	–
